According to article PMC9421653 (Journal of Medicinal Chemistry, 2022):
Converted amounts (≈) assume the structure as drawn. “Also recorded” adds a separate entry of the source.

What was measured:
[1] = molecular target: GPR84-Gαi2 fusion protein, Trp360Ala (Homo sapiens, UniProt Q9NQS5, W360A); test: [35S]GTPγS binding, GPR84-Gαi2 fusion protein, Trp360Ala; settings: Trp360 to Ala, versus wild type
[2] = molecular target: GPR84-Gαi2 fusion protein, Phe101Ala (Homo sapiens, UniProt Q9NQS5, F101A); test: [35S]GTPγS binding, GPR84-Gαi2 fusion protein, Phe101Ala; settings: Phe101 to Ala, versus wild type
mouse GPR84 = settings: cited from earlier work
[3] = molecular target: GPR84-Gαi2 fusion protein, Phe335Ala (Homo sapiens, UniProt Q9NQS5, F335A); test: [35S]GTPγS binding, GPR84-Gαi2 fusion protein, Phe335Ala; settings: Phe335 to Ala, versus wild type
human FFAR3 = molecular target: T1, human FFAR3 (Homo sapiens, UniProt O14843); test: [35S]GTPγS binding, block of C3 (propionate) at FFAR3; assay type: biochemical; settings: tested at 10 μM
T1 construct: expressed in transfected cells; host or cells: Flp-In T-REx 293 cells, induced; membrane preparations
T1 sequence (O14843 1-346): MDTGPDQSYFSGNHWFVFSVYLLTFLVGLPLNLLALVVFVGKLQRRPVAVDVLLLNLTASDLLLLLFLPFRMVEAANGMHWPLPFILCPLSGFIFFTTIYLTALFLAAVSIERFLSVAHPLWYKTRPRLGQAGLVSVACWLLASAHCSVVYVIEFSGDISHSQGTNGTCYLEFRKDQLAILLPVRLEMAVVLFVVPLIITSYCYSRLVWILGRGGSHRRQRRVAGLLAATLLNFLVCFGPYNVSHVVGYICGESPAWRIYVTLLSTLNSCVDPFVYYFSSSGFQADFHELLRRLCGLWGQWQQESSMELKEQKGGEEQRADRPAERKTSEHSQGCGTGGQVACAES

human GPR84 = molecular target: T2, human GPR84 (Homo sapiens, UniProt P04899+Q9NQS5); test: biochemical; assay type: biochemical; settings: [35S]GTPγS assay; negative log of the IC50 in molar; mean ± SEM
T2 construct: expressed in transfected cells; host or cells: Flp-In T-REx 293 cells, doxycycline-induced; membrane preparations

human FFAR2 = molecular target: T3, human FFAR2 (Homo sapiens, UniProt O15552); test: [35S]GTPγS binding, block of C3 (propionate) at FFAR2; assay type: biochemical; settings: tested at 10 μM
T3 construct: expressed in transfected cells; host or cells: Flp-In T-REx 293 cells, induced; membrane preparations
T3 sequence (O15552 1-330): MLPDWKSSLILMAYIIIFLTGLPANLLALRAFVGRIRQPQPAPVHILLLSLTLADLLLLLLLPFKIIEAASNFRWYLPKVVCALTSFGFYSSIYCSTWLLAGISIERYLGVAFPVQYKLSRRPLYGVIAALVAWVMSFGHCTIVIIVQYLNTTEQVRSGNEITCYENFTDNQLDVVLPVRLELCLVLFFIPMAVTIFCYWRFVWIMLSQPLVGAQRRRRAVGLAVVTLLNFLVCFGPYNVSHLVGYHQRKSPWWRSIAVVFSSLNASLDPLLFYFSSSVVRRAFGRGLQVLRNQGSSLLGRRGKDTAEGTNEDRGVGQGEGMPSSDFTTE

[4] = Mouse hepatocyte stability; assay type: in vitro ADME; settings: hepatocytes, read-out: mouse heps t1/2
in vitro = settings: human, microsomes
physchem = test: physchem
Text: DPI = 4,5-Diphenylimidazole
(2 pictures or pasted objects on this page, not shown here)

[5] = Log D7.4 (distribution coefficient); assay type: physicochemical; settings: pH 7.4
mouse plasma protein = test: Mouse plasma protein binding; assay type: in vitro ADME
[6] = In vivo mouse PK, PO dosing; settings: for Tmax / AUCall / Cmax: PO (10 mg/kg); for AUCall / Cmax / bioavailability: CV % in parenthesis; for bioavailability: male, C57BL/6J, plasma, PO (10 mg/kg) vs IV (1 mg/kg)
Experimental: (§1) Mouse pharmacokinetic studies were carried out by Xenogesis Ltd. (Nottingham, U.K.). All life phases were conducted in accordance with the local Ethics Review process.
(§2) Male C57BL/6J mice (n = 3, Charles River, U.K.) were orally administered with a dose of 10 mg/kg of the appropriate compound (formulation 0.5% w/v methylcellulose in water). […] Plasma concentrations were determined by LC/MS/MS. LC/MS/MS analysis was performed using a Thermo TSQ Quantiva with Thermo Vanquish UPLC system on a Luna Omega C18 column. The plasma concentrations were simulated by nonparametric analysis from the plasma concentrations obtained in the PK study using Phoenix WinNonlin.

[7] = In vivo mouse PK, IV dosing; settings: IV (1 mg/kg), CV % in parenthesis
Experimental: as §1
as §2, with “intravenously” for “orally”, “1” for “10”, “5% v/v DMSO in 20%” for “0.5%”, “HPCD” for “methylcellulose”

[8] = Mouse plasma protein binding; assay type: in vitro ADME; settings: read-out: mouse PPB
[9] = pH 7.4, kinetic solubility, PBS pH7.4 in 2% DMSO
[10] = pH 7.4, Kinetic Solubility, R=1, PBS pH7.4 in 2% DMSO by plate reader, replicate 1
[11] = pH 7.4, Kinetic Solubility, R=2, PBS pH7.4 in 2% DMSO by plate reader, replicate 2

T2 sequence (Q9NQS5+P04899 fused): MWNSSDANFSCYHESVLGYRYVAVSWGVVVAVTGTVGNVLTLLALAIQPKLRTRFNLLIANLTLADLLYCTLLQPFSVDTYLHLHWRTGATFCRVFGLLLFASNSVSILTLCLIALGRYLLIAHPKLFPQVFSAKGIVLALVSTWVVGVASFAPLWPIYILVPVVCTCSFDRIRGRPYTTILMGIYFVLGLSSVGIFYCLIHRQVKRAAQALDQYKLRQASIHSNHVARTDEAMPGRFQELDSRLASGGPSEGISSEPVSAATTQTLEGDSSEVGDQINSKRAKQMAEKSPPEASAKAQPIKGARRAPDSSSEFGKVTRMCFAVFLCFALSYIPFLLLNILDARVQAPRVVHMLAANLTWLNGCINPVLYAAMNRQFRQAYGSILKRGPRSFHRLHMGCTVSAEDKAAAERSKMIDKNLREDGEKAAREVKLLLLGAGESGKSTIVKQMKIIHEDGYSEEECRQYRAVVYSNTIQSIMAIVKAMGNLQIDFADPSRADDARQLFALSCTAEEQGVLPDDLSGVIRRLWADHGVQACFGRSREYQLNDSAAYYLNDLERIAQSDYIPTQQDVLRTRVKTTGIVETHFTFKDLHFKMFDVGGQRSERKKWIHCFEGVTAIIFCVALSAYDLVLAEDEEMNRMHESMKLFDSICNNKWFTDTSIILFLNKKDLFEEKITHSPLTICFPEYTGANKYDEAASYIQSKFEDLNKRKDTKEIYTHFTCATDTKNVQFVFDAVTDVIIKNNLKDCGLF
Sequence of GPR84-Gαi2 fusion protein, Phe101Ala (Q9NQS5 whole entry F101A, the tested form may be a part): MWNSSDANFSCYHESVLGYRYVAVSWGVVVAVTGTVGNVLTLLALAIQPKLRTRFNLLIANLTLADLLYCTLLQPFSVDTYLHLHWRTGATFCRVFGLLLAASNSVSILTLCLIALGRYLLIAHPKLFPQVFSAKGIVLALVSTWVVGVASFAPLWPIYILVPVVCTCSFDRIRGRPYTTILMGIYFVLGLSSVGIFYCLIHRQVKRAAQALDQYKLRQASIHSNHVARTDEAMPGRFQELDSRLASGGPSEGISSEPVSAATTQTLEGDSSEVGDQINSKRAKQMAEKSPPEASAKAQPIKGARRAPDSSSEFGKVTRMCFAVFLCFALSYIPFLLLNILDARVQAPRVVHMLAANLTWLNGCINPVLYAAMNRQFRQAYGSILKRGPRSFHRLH
Sequence of GPR84-Gαi2 fusion protein, Phe101Ala (P04899 2-355 partner): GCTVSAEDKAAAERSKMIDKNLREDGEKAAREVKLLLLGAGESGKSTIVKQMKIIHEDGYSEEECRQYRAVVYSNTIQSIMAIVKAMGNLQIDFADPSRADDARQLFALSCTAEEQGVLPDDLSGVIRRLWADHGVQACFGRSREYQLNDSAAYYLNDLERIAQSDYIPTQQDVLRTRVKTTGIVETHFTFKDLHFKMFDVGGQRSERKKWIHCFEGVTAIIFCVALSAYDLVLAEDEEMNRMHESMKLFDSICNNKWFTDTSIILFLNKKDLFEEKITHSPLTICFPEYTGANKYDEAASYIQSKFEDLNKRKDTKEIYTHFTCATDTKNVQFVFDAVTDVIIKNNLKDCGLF
Sequence of GPR84-Gαi2 fusion protein, Trp360Ala (Q9NQS5 whole entry W360A, the tested form may be a part): as the sequence (Q9NQS5 whole entry F101A, the tested form may be a part) above, with A101F, W360A counted along it
Sequence of GPR84-Gαi2 fusion protein, Trp360Ala (P04899 2-355 partner): as the sequence (P04899 2-355 partner) above
Sequence of GPR84-Gαi2 fusion protein, Phe335Ala (Q9NQS5 whole entry F335A, the tested form may be a part): as the sequence (Q9NQS5 whole entry F101A, the tested form may be a part) above, with A101F, F335A counted along it
Sequence of GPR84-Gαi2 fusion protein, Phe335Ala (P04899 2-355 partner): as the sequence (P04899 2-355 partner) above

Structure (SMILES) | block of the actions of the C3 fatty acid propionate at FFAR3 (human FFAR3) | GTPγS (pIC50) (human GPR84) | block of the actions of the C3 fatty acid propionate at FFAR2 (human FFAR2) | half-life [4] [min] | half-life (in vitro) [min] | solubility kinetic (physchem; [9]) [µM] | logD [5] | mouse PPB (mouse plasma protein) [%free] | Tmax [6] [min] | AUCall [6] | Cmax [6] | bioavailability [6] [%] | solubility kinetic (physchem; [10]) [µM] | solubility kinetic (physchem; [11]) [µM] | AUCall [7] | C0 [7] | CL [7] | Vss [7] | half-life [7] | fraction unbound [8] | other results
COc1ccc(-c2nnc(Cc3c[nH]c4ccccc34)nc2-c2ccc(OC)cc2)cc1 [Compound 1, 3-((5,6-Bis(4-methoxyphenyl)-1,2,4-triazin-3-yl)methyl)-1H-indole] | no ability to block; also recorded: did not block | 7.93 ± 0.21 | no ability to block; also recorded: did not block |  |  |  |  |  |  |  |  |  |  |  |  |  |  |  |  |  | affinity to block effects of the allosteric agonist PSB-16671 [1]: substantial loss of affinity; affinity to block effects of the allosteric agonist PSB-16671 [2]: substantial loss of affinity; antagonism of mouse GPR84 (mouse GPR84): unable to antagonize; affinity to block effects of the allosteric agonist PSB-16671 [3]: substantial loss of affinity
c1ccc(-c2nnc(Cc3c[nH]c4ccccc34)nc2-c2ccccc2)cc1 [Compound 4, 3-((5,6-Diphenyl-1,2,4-triazin-3-yl)methyl)-1H-indole] | no ability to block; also recorded: did not block |  | no ability to block; also recorded: did not block | 4.4 | 21.8 | 1.4 (≈ 0.507 µg/mL) | 4.24 | <1 |  |  |  |  |  |  |  |  |  |  |  |  | solubility kinetic (physchem; pH 7.4, Kinetic Solubility, R=1, PBS pH7.4 in 2% DMSO by LC-MS, replicate 1): 1.5 µM (≈ 0.544 µg/mL); solubility kinetic (physchem; pH 7.4, Kinetic Solubility, R=2, PBS pH7.4 in 2% DMSO by LC-MS, replicate 2): 1.3 µM (≈ 0.471 µg/mL)
c1ccc(-c2nc(Cc3c[nH]c4ccccc34)nnc2-c2ccc(CN3CCOCC3)cc2)cc1 [Compound 42, 4-(4-(3-((1H-Indol-3-yl)methyl)-5-phenyl-1,2,4-triazin-6-yl)benzyl)morpholine] | no ability to block; also recorded: did not block | 8.28 ± 0.11 | no ability to block; also recorded: did not block | 16 | 12.8 | 14 (≈ 6.46 µg/mL) | 3.84 | <1 | 60 | 1590 (18.7) ng/mL·h | 402 (31.8) ng/mL | 36.8 | 12 (≈ 5.54 µg/mL) | 16 (≈ 7.39 µg/mL) | 420 (12.5) ng/mL·h | 394 (19.1) ng/mL | 38.9 (13.9) mL/min/kg | 7.24 (9.2) L/kg | 2.51 (6.55) h |  | 
CNC(=O)c1ccc(-c2nnc(Cc3c[nH]c4cnccc34)nc2-c2ccccc2)cc1 [Compound 68, 4-(3-((1H-Pyrrolo[2,3-c]pyridin-3-yl)methyl)-5-phenyl-1,2,4-triazin-6-yl)-N-methylbenzamide] |  | 7.29 ± 0.05 |  | 12.5 | 39.9 | 146 (≈ 61.4 µg/mL) | 2.71 |  |  |  |  |  | 149 (≈ 62.7 µg/mL) | 143 (≈ 60.1 µg/mL) |  |  |  |  |  | 0.038 | 
O=C(NCCO)c1ccc(-c2nnc(Cc3c[nH]c4ccccc34)nc2-c2ccccc2)cc1 [Compound 76, 4-(3-((1H-Indol-3-yl)methyl)-5-phenyl-1,2,4-triazin-6-yl)-N-(2-hydroxyethyl)benzamide] | no ability to block; also recorded: did not block | 7.46 ± 0.07 | no ability to block; also recorded: did not block | 47.3 | 57.2 | 61 (≈ 27.4 µg/mL) | 3.09 |  | 60 | 3160 (8.82) ng/mL·h | 1080 (16.1) ng/mL | 41.5 | 59 (≈ 26.5 µg/mL) | 62 (≈ 27.9 µg/mL) | 757 (10.8) ng/mL·h | 1170 (29.6) ng/mL | 22.0 (11.3) mL/min/kg | 1.81 (15.2) L/kg | 1.22 (13.5) h | 0.011 | 
